Experimental data as given in ChEMBL document CHEMBL5723582, “Data for DCP probe T-10430” (2024).

Assays:
Conditions in all cases: Compound concentration 1.0 uM
[1] = molecular target: Probable G-protein coupled receptor 21 (Homo sapiens) (UniProt Q99679); assay: RLU of GPR21 at 1.0 µM in the […] PRESTO-Tango GPCRome screen
[2] = molecular target: Melanin-concentrating hormone receptor 1 (Homo sapiens) (UniProt Q99705); assay: RLU of MCHR1 at 1.0 µM in the […] PRESTO-Tango GPCRome screen
[3] = molecular target: P2Y purinoceptor 2 (Homo sapiens) (UniProt P41231); assay: RLU of P2RY2 at 1.0 µM in the […] PRESTO-Tango GPCRome screen
[4] = molecular target: D(1B) dopamine receptor (Homo sapiens) (UniProt P21918); assay: RLU of DRD5 at 1.0 µM in the […] PRESTO-Tango GPCRome screen
[5] = tested on: Pyroglutamylated RFamide peptide receptor (Homo sapiens); assay: RLU of QRFP at 1.0 µM in the […] PRESTO-Tango GPCRome screen
[6] = molecular target: Melatonin receptor type 1A (Homo sapiens) (UniProt P48039); assay: RLU of MTNR1A at 1.0 µM in the […] PRESTO-Tango GPCRome screen
Chain of Melatonin receptor type 1A (Homo sapiens) (P48039 whole entry): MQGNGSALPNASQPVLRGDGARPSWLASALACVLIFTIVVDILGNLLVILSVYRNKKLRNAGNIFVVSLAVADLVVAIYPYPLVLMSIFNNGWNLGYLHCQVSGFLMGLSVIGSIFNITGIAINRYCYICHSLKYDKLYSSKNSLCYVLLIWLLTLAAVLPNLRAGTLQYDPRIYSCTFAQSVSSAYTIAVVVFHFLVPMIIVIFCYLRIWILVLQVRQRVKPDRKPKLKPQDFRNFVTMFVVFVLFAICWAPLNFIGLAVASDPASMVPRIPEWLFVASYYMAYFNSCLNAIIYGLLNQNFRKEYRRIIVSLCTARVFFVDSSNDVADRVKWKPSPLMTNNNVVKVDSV

[7] = molecular target: Adhesion G protein-coupled receptor L4 (Homo sapiens) (UniProt Q9HBW9); assay: RLU of ELTD1 at 1.0 µM in the […] PRESTO-Tango GPCRome screen
[8] = molecular target: G-protein coupled receptor 78 (Homo sapiens) (UniProt Q96P69); assay: RLU of GPR78 at 1.0 µM in the […] PRESTO-Tango GPCRome screen
[9] = molecular target: 5-hydroxytryptamine receptor 1B (Homo sapiens) (UniProt P28222); assay: RLU of HTR1B at 1.0 µM in the Aequorin PRESTO-Tango GPCRome screen
[10] = molecular target: N-formyl peptide receptor 3 (Homo sapiens) (UniProt P25089); assay: RLU of FPR3 at 1.0 µM in the […] PRESTO-Tango GPCRome screen
[11] = molecular target: G-protein coupled receptor 146 (Homo sapiens) (UniProt Q96CH1); assay: RLU of GPR146 at 1.0 µM in the […] PRESTO-Tango GPCRome screen
[12] = molecular target: Adhesion G-protein coupled receptor G5 (Homo sapiens) (UniProt Q8IZF4); assay: RLU of GPR114 at 1.0 µM in the […] PRESTO-Tango GPCRome screen
[13] = molecular target: Cannabinoid receptor 2 (Homo sapiens) (UniProt P34972); assay: RLU of CNR2 at 1.0 µM in the […] PRESTO-Tango GPCRome screen
Chain of Cannabinoid receptor 2 (Homo sapiens) (P34972 whole entry): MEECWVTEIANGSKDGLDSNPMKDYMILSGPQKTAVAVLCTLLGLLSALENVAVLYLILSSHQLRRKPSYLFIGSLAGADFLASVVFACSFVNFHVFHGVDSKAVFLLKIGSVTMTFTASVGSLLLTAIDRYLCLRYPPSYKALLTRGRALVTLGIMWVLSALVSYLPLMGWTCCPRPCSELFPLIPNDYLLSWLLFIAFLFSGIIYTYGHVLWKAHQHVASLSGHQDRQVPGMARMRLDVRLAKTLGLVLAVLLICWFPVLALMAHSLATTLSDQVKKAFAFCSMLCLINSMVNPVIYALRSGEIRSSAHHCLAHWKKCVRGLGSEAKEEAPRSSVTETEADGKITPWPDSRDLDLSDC

[14] = molecular target: 12-(S)-hydroxy-5,8,10,14-eicosatetraenoic acid receptor (Homo sapiens) (UniProt O00270); assay: RLU of GPR31 at 1.0 µM in the […] PRESTO-Tango GPCRome screen
[15] = molecular target: Adhesion G protein-coupled receptor D2 (Homo sapiens) (UniProt Q7Z7M1); assay: RLU of GPR144 at 1.0 µM in the […] PRESTO-Tango GPCRome screen
[16] = molecular target: P2Y purinoceptor 11 (Homo sapiens) (UniProt Q96G91); assay: RLU of P2RY11 at 1.0 µM in the […] PRESTO-Tango GPCRome screen
Chain of P2Y purinoceptor 11 (Homo sapiens) (Q96G91 whole entry): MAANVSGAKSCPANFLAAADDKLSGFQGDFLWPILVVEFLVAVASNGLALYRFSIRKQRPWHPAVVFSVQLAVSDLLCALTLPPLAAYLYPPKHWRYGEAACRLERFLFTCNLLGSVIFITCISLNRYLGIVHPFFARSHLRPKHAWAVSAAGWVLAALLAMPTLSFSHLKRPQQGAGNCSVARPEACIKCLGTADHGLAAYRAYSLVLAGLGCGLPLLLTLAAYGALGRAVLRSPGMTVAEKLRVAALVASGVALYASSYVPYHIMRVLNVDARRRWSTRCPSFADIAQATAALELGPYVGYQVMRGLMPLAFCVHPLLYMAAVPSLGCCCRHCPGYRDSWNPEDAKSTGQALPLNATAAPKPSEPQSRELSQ

[17] = molecular target: Putative P2Y purinoceptor 10 (Homo sapiens) (UniProt O00398); assay: RLU of P2RY10 at 1.0 µM in the […] PRESTO-Tango GPCRome screen
Chain of Putative P2Y purinoceptor 10 (Homo sapiens) (O00398 whole entry): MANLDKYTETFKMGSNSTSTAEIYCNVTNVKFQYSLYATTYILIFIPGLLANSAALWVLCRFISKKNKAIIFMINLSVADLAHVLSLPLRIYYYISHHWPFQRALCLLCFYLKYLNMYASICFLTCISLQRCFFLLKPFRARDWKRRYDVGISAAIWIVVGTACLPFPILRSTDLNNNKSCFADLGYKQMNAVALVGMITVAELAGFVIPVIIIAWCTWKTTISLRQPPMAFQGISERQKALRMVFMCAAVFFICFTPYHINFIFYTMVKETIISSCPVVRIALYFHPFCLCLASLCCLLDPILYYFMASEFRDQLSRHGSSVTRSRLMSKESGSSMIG

[18] = molecular target: 5-hydroxytryptamine receptor 1A (Homo sapiens) (UniProt P08908); assay: RLU of HTR1A at 1.0 µM in the Aequorin PRESTO-Tango GPCRome screen
Chain of 5-hydroxytryptamine receptor 1A (Homo sapiens) (P08908 whole entry): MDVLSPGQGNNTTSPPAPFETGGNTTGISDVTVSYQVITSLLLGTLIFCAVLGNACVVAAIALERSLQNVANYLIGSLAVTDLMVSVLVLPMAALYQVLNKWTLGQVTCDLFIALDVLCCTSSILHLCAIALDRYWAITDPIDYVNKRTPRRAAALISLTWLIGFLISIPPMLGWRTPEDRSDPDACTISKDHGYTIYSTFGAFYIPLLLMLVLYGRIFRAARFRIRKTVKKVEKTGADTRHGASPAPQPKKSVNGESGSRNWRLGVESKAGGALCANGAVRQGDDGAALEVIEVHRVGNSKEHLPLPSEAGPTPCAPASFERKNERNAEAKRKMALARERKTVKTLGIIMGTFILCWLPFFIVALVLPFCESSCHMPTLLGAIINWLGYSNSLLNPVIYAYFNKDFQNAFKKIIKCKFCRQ

[19] = molecular target: Adhesion G-protein coupled receptor F1 (Homo sapiens) (UniProt Q5T601); assay: RLU of GPR110 at 1.0 µM in the […] PRESTO-Tango GPCRome screen
Chain of Adhesion G-protein coupled receptor F1 (Homo sapiens) (Q5T601 20-566 limits assumed): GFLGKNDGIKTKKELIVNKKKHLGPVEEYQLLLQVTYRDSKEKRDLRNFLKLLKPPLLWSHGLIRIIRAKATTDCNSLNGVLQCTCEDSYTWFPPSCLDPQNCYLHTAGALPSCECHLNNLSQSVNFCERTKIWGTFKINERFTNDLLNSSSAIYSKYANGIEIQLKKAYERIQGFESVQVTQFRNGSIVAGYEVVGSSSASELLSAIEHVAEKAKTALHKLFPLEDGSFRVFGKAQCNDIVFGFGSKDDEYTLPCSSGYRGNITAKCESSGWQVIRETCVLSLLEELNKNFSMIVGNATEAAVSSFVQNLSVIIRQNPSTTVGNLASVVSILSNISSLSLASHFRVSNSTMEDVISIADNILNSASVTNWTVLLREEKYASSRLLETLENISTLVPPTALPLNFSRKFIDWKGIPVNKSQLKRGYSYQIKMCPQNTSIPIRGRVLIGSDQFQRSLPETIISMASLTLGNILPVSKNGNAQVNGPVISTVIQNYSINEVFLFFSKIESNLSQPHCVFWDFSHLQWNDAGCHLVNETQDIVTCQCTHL
Chain of Adhesion G-protein coupled receptor F1 (Homo sapiens) (Q5T601 567-910 limits assumed): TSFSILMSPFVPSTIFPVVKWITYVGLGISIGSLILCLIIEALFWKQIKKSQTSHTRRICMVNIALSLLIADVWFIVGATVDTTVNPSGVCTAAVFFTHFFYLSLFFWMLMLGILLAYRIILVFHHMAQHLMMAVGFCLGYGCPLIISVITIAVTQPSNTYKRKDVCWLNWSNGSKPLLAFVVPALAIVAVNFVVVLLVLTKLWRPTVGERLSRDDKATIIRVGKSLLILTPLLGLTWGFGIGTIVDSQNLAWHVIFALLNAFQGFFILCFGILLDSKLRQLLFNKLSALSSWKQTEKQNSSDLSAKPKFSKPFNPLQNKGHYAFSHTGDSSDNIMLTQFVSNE

[20] = molecular target: Hydroxycarboxylic acid receptor 2 (Homo sapiens) (UniProt Q8TDS4); assay: RLU of HCA2 at 1.0 µM in the Aequorin PRESTO-Tango GPCRome screen
[21] = molecular target: Probable G-protein coupled receptor 85 (Homo sapiens) (UniProt P60893); assay: RLU of GPR85 at 1.0 µM in the […] PRESTO-Tango GPCRome screen
[22] = molecular target: Mas-related G-protein coupled receptor member X4 (Homo sapiens) (UniProt Q96LA9); assay: RLU of MRGPRX4 at 1.0 µM in the […] PRESTO-Tango GPCRome screen
Chain of Mas-related G-protein coupled receptor member X4 (Homo sapiens) (Q96LA9 whole entry): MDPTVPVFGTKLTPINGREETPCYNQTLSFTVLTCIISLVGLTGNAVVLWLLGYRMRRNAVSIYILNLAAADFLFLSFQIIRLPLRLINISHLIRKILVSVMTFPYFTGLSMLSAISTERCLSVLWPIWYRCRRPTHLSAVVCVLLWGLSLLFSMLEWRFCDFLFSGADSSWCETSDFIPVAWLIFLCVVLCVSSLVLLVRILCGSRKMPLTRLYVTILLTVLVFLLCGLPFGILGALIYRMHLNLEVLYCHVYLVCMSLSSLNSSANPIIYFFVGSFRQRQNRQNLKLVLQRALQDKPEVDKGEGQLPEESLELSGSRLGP

[23] = molecular target: Free fatty acid receptor 1 (Homo sapiens) (UniProt O14842); assay: RLU of FFA1 (GPR40) at 1.0 µM in the […] PRESTO-Tango GPCRome screen
[24] = molecular target: Adhesion G protein-coupled receptor F4 (Homo sapiens) (UniProt Q8IZF3); assay: RLU of GPR115 at 1.0 µM in the […] PRESTO-Tango GPCRome screen
[25] = molecular target: Secretin receptor (Homo sapiens) (UniProt P47872); assay: RLU of SCTR at 1.0 µM in the […] PRESTO-Tango GPCRome screen
[26] = molecular target: Mas-related G-protein coupled receptor member G (Homo sapiens) (UniProt Q86SM5); assay: RLU of MRGPRG at 1.0 µM in the […] PRESTO-Tango GPCRome screen
[27] = molecular target: Neuropeptide FF receptor 2 (Homo sapiens) (UniProt Q9Y5X5); assay: RLU of NPFF2 at 1.0 µM in the […] PRESTO-Tango GPCRome screen
[28] = molecular target: Probable G-protein coupled receptor 34 (Homo sapiens) (UniProt Q9UPC5); assay: RLU of GPR34 at 1.0 µM in the […] PRESTO-Tango GPCRome screen
[29] = molecular target: Oxytocin receptor (Homo sapiens) (UniProt P30559); assay: RLU of OXTR at 1.0 µM in the […] PRESTO-Tango GPCRome screen
[30] = molecular target: 5-hydroxytryptamine receptor 1E (Homo sapiens) (UniProt P28566); assay: RLU of HTR1E at 1.0 µM in the […] PRESTO-Tango GPCRome screen
[31] = molecular target: P2Y purinoceptor 14 (Homo sapiens) (UniProt Q15391); assay: RLU of P2RY14 at 1.0 µM in the […] PRESTO-Tango GPCRome screen
[32] = molecular target: Prolactin-releasing peptide receptor (Homo sapiens) (UniProt P49683); assay: RLU of PRRP at 1.0 µM in the […] PRESTO-Tango GPCRome screen
Chain of Prolactin-releasing peptide receptor (Homo sapiens) (P49683 whole entry): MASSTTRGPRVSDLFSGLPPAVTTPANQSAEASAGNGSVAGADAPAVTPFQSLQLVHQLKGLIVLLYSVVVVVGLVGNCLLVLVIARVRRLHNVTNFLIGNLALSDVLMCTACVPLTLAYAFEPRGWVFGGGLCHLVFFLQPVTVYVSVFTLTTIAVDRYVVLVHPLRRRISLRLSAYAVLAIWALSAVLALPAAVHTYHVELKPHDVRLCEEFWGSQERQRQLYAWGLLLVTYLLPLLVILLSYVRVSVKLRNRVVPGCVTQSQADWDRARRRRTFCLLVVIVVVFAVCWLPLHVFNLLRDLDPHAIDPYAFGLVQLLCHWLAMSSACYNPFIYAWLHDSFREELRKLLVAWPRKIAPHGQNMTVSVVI

[33] = molecular target: Prostaglandin E2 receptor EP3 subtype (Homo sapiens) (UniProt P43115); assay: RLU of PTGER3 at 1.0 µM in the […] PRESTO-Tango GPCRome screen
[34] = molecular target: Bombesin receptor subtype-3 (Homo sapiens) (UniProt P32247); assay: RLU of BB3 at 1.0 µM in the […] PRESTO-Tango GPCRome screen
Chain of Bombesin receptor subtype-3 (Homo sapiens) (P32247 whole entry): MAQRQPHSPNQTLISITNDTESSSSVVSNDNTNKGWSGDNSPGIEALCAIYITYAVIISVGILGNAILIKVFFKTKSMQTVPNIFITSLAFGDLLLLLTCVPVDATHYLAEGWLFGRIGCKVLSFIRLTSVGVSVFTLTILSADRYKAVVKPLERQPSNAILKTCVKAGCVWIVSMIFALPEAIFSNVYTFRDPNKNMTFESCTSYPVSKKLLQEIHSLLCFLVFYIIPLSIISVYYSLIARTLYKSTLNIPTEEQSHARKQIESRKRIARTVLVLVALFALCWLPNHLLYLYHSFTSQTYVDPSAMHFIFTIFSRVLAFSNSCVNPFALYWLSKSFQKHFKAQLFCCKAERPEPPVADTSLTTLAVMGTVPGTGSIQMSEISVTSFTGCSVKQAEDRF

[35] = molecular target: Relaxin receptor 1 (Homo sapiens) (UniProt Q9HBX9); assay: RLU of RXFP1 at 1.0 µM in the […] PRESTO-Tango GPCRome screen
Chain of Relaxin receptor 1 (Homo sapiens) (Q9HBX9 whole entry): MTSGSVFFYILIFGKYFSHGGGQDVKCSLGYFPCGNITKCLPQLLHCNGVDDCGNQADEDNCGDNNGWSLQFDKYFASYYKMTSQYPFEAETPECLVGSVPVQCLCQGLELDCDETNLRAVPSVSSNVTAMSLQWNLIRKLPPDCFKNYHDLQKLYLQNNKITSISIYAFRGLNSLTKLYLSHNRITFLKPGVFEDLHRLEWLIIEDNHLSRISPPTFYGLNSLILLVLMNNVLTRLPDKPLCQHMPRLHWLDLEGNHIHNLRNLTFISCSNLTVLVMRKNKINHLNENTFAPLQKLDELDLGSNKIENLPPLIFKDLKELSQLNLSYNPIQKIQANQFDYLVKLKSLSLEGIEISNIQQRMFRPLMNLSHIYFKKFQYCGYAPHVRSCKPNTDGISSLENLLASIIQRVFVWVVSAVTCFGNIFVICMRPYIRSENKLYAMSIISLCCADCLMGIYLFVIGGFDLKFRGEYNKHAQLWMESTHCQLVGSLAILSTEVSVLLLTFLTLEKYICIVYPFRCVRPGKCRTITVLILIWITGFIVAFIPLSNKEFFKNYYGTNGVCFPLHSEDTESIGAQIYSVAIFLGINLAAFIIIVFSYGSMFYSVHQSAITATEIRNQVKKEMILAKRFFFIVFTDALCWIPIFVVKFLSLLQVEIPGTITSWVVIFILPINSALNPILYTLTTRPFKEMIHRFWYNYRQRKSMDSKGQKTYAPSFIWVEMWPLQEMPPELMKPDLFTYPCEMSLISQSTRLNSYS

Chain of Probable G-protein coupled receptor 21 (Homo sapiens) (Q99679 whole entry): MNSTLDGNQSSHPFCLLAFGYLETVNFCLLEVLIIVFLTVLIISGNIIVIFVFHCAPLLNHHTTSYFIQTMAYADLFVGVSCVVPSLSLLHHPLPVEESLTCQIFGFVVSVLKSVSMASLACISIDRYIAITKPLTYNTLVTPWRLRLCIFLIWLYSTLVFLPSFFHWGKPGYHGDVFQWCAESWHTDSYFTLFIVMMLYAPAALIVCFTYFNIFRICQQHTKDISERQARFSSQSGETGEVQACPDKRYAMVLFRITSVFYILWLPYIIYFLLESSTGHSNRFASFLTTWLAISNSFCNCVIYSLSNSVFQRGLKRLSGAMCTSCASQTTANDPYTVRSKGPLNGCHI

RLU [1]: -483 | RLU [2]: 5930 | RLU [3]: 2250 | RLU [4]: 856 | RLU [5]: -577 | RLU [6]: 466 | RLU [7]: 1170 | RLU [8]: 5.41 | RLU [9]: 77.2 | RLU [10]: 2840 | RLU [11]: -1510 | RLU [12]: 432 | RLU [13]: 4360 | RLU [14]: 1300 | RLU [15]: 917 | RLU [16]: -216 | RLU [17]: -82.4 | RLU [18]: 1530 | RLU [19]: 9360 | RLU [20]: -133 | RLU [21]: -4210 | RLU [22]: 3310 | RLU [23]: 2090 | RLU [24]: -283 | RLU [25]: -71.4 | RLU [26]: -560 | RLU [27]: -116 | RLU [28]: 5570 | RLU [29]: -479 | RLU [30]: -638 | RLU [31]: -5260 | RLU [32]: 4140 | RLU [33]: 83.2 | RLU [34]: -2040 | RLU [35]: -1130
SMILES: CCCCC(=O)N1CC2(C1)CN(c1ccccc1-c1nnn[nH]1)C2
